From BindingDB's records for patent US10399948 (Vanderbilt University, 2019)

What follows are molecules tested against Metabotropic glutamate receptor 5 (Rattus norvegicus, UniProt P31424) (assay: mGlu5 Ca2+ Flux Assay).
Experimental: HEK 293A cells stably expressing rat mGlu5 were plated in black-walled, clear-bottomed, poly-D-lysine coated 384-well plates in 20 μL of assay medium (DMEM containing 10% dialyzed FBS, 20 mM HEPES, 100 units/mL penicillin/streptomycin plus 250 ng/mL Fungizone, and 1 mM sodium pyruvate) at a density of 20K cells/well. The cells were grown overnight at 37° C. in the presence of 5% CO2. The next day, medium was removed and the cells incubated with 20 μL of […] Fluo-4, AM prepared as a 2.3 mM stock in DMSO and mixed in a 1:1 ratio with 10% (w/v) pluronic acid F-127 and diluted in assay buffer (Hank's balanced salt solution, 20 mM HEPES, and 2.5 mM probenecid) for 45 minutes at 37° C. Dye was removed, 20 μL of assay buffer was added, and the plate was incubated for 5 minutes at room temperature.Ca2+ flux was measured using the Functional Drug Screening System (FDSS7000, Hamamatsu, Japan). After establishment of a fluorescence baseline for about 3 seconds, the compounds of the present invention were added to the cells, and the response in cells was measured. 2.3 minutes later an EC20 concentration of the mGlu5 receptor agonist glutamate was added to the cells, and the response of the cells was measured for 1.9 minutes; an EC80 concentration of agonist was added and readings taken for an additional 1.7 minutes. All test compounds were dissolved and diluted to a concentration of 10 mM in 100% DMSO. Compounds were then serially diluted 1:3 in DMSO into 10 point concentration response curves, transferred to daughter plates, and further diluted into assay buffer to a 2× stock. Calcium fluorescence measures were recorded as fold over basal fluorescence; raw data was then normalized to the maximal response to glutamate. Potentiation of the agonist response of the mGlu5 receptor in the present invention was observed as an increase in response to submaximal concentrations of glutamate in the presence of compound compared to the response to glutamate in the absence of compound. Antagonism of the agonist response of the mGlu5 receptor in the present invention was observed as a decrease in response to nearly maximal concentrations of glutamate in the presence of compound compared to the response to glutamate in the absence of compound.The raw data file containing all time points was used as the data source in the analysis template. This was saved by the FDSS as a tab-delimited text file. Data were normalized using a static ratio function (F/F0) for each measurement of the total 360 values per well divided by each well's initial value. Data were then reduced to peak amplitudes (Max−Initial Min) using a time range that starts approximately 3 seconds prior to the glutamate EC20/EC80 addition and continues for approximately 90-120 seconds. This is sufficient time to capture the peak amplitude of the cellular calcium response. Individual amplitudes were expressed as % EMax by multiplying each amplitude by 100 and then dividing the product by the mean of the amplitudes derived from the glutamate ECMax-treated wells. EC50 values for test compounds were generated by fitting the normalized values versus the log of the test compound concentration (in mol/L) using a 4 parameter logistic equation where none of the parameters were fixed. Each of the three values collected at each concentration of test compound were weighted evenly

Sequence of Metabotropic glutamate receptor 5 (P31424 whole entry): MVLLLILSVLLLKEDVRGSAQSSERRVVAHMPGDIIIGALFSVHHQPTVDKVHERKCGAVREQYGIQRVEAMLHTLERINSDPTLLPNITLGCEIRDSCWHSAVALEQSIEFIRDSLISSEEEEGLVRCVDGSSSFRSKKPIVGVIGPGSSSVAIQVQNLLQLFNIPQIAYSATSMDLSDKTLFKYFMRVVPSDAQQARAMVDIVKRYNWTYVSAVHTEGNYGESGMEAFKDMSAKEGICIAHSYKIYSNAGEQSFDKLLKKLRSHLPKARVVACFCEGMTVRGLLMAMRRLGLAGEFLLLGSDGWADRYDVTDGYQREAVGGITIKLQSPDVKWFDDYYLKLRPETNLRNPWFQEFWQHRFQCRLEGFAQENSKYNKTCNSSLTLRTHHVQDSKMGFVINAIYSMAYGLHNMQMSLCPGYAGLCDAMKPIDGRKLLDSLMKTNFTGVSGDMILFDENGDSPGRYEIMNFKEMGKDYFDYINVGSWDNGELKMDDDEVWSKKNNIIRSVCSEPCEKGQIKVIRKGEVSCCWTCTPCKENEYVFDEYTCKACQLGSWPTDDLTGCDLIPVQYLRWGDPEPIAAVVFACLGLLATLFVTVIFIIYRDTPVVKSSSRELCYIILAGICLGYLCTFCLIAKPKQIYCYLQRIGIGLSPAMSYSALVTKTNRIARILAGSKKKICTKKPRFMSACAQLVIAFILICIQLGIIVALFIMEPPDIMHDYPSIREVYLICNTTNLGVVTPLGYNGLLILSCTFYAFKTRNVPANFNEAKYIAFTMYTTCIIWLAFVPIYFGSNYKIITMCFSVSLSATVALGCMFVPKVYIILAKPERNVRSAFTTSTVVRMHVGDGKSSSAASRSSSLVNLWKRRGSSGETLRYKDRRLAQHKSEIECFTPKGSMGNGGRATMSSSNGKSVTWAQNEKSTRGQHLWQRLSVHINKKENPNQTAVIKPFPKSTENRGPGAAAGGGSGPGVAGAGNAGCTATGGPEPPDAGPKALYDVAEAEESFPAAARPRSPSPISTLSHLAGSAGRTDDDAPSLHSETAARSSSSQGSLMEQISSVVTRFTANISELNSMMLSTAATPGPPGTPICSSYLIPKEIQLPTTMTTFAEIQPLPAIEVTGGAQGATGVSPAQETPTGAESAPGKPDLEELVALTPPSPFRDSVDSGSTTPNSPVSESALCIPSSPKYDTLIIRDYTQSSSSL

SMILES | IC50 [µM]
O=c1nc(OCCOc2ccccc2)ccn1-c1ccc(F)c(F)c1 [US10399948, Compound 15] | 0.427
O=c1cc(OCCOc2cc(Cl)ccn2)ccn1-c1ccc(F)cc1 [US10399948, Compound 49] | 8.8
O=c1nc(OCCOc2ccccc2)ccn1-c1cccc(F)c1 [US10399948, Compound 14] | 3.54
N#Cc1cccc(-n2ccc(OCCOc3ccccc3)cc2=O)c1 [US10399948, Compound 22] | 6.02
O=c1cc(OCCOc2ncccc2Cl)ccn1-c1ccc(F)cc1 [US10399948, Compound 54] | 7.82
N#Cc1cc(F)cc(-n2ccc(OCCOc3ccccc3)cc2=O)c1 [US10399948, Compound 23] | 1.31
O=c1nc(OCCOc2ccccc2)ccn1-c1ccc(F)cc1 [US10399948, Compound 17] | 1.19
